Measured values reported in patent US8318641B2, “Systems and methods for the detection of biomarkers” (priority 2010, dated 2012).

T1: α-amylase (Homo sapiens, UniProt P0DUB6)
T1 sequence (P0DUB6 16-511): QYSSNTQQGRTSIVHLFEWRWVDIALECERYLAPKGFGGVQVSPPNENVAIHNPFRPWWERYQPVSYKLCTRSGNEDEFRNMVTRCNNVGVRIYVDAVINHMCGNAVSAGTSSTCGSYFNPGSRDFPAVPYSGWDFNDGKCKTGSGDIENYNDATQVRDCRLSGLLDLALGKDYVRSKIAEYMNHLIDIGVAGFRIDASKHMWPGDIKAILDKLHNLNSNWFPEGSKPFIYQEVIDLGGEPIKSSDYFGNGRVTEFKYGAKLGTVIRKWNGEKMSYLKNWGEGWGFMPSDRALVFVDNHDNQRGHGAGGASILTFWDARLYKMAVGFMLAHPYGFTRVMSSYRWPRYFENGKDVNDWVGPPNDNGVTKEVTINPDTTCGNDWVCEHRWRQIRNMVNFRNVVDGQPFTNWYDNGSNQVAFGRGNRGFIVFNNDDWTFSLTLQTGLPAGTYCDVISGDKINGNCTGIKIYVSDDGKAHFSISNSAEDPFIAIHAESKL

T2: Lysozyme (Homo sapiens, UniProt P61626)
T2 sequence (P61626 19-148): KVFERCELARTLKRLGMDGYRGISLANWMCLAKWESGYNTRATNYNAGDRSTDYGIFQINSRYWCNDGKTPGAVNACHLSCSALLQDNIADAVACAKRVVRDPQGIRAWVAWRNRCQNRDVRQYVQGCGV

B1: Soybeans: primary soybean protease inhibitor, 20.7-22.3 kDa (protein, UniProt P01070 25-205, looked up)
Trypsin inhibitor A: DFVLDNEGNPLENGGTYYILSDITAFGGIRAAPTGNERCPLTVVQSRNELDKGIGTIISSPYRIRFIAEGHPLSLKFDSFAVIMLCVGIPTEWSVVEDLPEGPAVKIGENKDAMDGWFRLERVSDDEFNNYKLVFCPQQAEDDKCGDIGISIDHDDGTRRLVVSKNKPLVVQFQKLDKESL

Columns and labels:
[1] = tested on: peroxidase; experiment: Peroxidase assay in saliva (Amplex Red); format: biochemical; conditions: test compound prepared at 500 ppm, 30 minutes, FIGS. 26-29
Description: To determine the effect of various GRAS compounds as inhibitors of peroxidase activity, a standard assay using Amplex® Red (Life Technologies), which releases a fluorescent oxidation product.
The test compounds, such as GRAS materials or cocktails of same, were prepared at a concentration of 500 ppm in distilled water. For the assay, 50 μl samples of test compounds were mixed with 20-30 μl of saliva (either “pooled” or “unpooled”) prior to the addition of Amplex® Red. […] Reactions were allowed to run for 30 minutes during these assays.

[2] = molecular target: T1, α-amylase; experiment: α-Amylase inhibition saliva screening (2-chloro-p-nitrophenol-maltotriose substrate, absorbance 405 nm); format: biochemical
Description: Further details of these five compounds may also be seen in Table 4.

[3] = molecular target: T2, Lysozyme; experiment: Lysozyme inhibition saliva screening (fluorescein-labeled Micrococcus lysodeikticus); format: biochemical; conditions: 100% saliva samples (data not shown)
Description: Further details of these five compounds may also be seen in Table 5.

[4] = tested on: protease; conditions: cited from earlier work

Row | Molecule | peroxidase inhibition [1] | Ave (absorbance at 405 nm) ([2]; Time 0 min) | also measured
1 | COc1ccc(O)c(C(C)(C)C)c1 [CDI-039, 3-tert--butyl-hydroxyanisole] | significant peroxidase inhibition capabilities |  | 
2 | Aluminum potassium sulfate dodecahydrate [CDI-42] | significant peroxidase inhibition capabilities | 0.92 | 
3 | Aluminum sulfate hydrate [CDI-34] |  | 0.40 | Ave (absorbance at 405 nm) ([2]; Time 5 min): 0.50; Ave (absorbance at 405 nm) ([2]; Time 15 min): 0.56
4 | Cn1c(=O)c2c(ncn2C)n(C)c1=O [CDI #33, Caffeine] | significant peroxidase inhibition capabilities |  | 
5 | CC(=O)O [CDI-047, Acetic acid] |  |  | Lysozyme inhibition [3]: shown to inhibit Lysozyme
6 | B1 |  |  | Inhibitory power [4]: 1.2 times times weight
